Where a name gives a salt, the structure may show the parent alone. Read-outs that look alike come from different tables or passages of the source.
Legend:
AA = target: T1, AA (Homo sapiens, UniProt O14965); experiment: AA IC50 (Table 1; no method given); format: biochemical
T1 sequence (O14965 1-403): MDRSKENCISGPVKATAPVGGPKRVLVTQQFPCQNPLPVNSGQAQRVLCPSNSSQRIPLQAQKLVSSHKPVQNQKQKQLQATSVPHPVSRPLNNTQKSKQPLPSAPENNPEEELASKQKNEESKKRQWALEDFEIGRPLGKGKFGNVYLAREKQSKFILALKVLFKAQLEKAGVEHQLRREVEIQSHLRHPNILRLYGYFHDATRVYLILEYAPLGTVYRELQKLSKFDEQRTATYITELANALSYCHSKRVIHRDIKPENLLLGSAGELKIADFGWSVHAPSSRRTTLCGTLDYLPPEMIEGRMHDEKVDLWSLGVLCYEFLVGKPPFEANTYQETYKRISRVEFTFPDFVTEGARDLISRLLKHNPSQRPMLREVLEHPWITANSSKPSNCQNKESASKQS

PLK1 = PLK1 (Homo sapiens, UniProt P53350); experiment: PLK1 protein kinase assay (CDC25C phosphorylation, [γ-32P]-ATP); format: biochemical; details: Table 2, PLK1 IC50; class symbols; read-out: PLK1 IC50
Sequence of PLK1 (P53350 whole entry): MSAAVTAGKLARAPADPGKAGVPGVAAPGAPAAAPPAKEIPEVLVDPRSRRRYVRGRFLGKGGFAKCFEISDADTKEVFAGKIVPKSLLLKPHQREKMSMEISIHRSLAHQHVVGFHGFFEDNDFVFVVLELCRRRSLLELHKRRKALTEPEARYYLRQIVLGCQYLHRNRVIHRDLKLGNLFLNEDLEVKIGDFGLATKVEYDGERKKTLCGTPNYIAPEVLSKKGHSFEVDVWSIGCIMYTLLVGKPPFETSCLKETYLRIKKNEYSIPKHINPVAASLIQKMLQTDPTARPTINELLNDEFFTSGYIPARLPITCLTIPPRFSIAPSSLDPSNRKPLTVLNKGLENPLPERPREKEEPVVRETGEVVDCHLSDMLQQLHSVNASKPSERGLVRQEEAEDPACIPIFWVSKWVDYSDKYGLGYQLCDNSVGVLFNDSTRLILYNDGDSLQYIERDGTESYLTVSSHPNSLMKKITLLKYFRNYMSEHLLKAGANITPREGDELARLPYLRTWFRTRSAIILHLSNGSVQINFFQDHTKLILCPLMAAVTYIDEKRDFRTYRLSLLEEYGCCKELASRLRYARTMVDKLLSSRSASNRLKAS

[1] = Table 2, AurA IC50, class symbols, read-out: AurA IC50

SMILES | IC50 (PLK1) [nM] | also measured
COc1cc(C(=O)O)ccc1Nc1ncc2c(n1)N(C1CCCCC1)CCC(=O)N2 [compound 9, 4-(9-Cyclohexyl-6-oxo-6,7,8,9-tetrahydro-5H-pyrimido[4,5-b][1,4]diazepin-2-ylamino)-3-methoxy-benzoic acid] | – | IC50 (AA; Table 1, read-out: AA IC50): 1000 to 10000 nM
CN1C(=O)CCN(C(C)(C)C)c2nc(Nc3ccc(C(=O)O)cc3)ncc21 [compound 43, 4-(9-tert-Butyl-5-methyl-6-oxo-6,7,8,9-tetrahydro-5H-pyrimido[4,5-b][1,4]diazepin-2-ylamino)-benzoic acid] | – | IC50 (AA; [1]): < 1000 nM
COc1cc(C(=O)NC2CCN(C)CC2)ccc1Nc1ncc2c(n1)N(Cc1ccc(OC)c(OC)c1)CC(C)C(=O)N2C (centres unmarked) [compound 44, 4-[9-(3,4-Dimethoxy-benzyl)-5,7-dimethyl-6-oxo-6,7,8,9-tetrahydro-5H-pyrimido[4,5-b][1,4]diazepin-2-ylamino]-3-methoxy-N-(1-methyl-piperidin-4-yl)-benzamide] | – | IC50 (AA; [1]): < 10000 nM
COc1ccc(CN2CC(C)C(=O)N(C)c3cnc(Nc4ccc(C(=O)O)cc4)nc32)cc1OC (centres unmarked) [compound 45, 4-[9-(3,4-Dimethoxy-benzyl)-5,7-dimethyl-6-oxo-6,7,8,9-tetrahydro-5H-pyrimido[4,5-b][1,4]diazepin-2-ylamino]-benzoic acid] | – | IC50 (AA; [1]): < 10000 nM
CN1CCC(NC(=O)c2ccc(Nc3ncc4c(n3)N(C3CCCC3)CCC(=O)N4C)cc2)CC1 [compound 64, 4-(9-Cyclopentyl-5-methyl-6-oxo-6,7,8,9-tetrahydro-5H-pyrimido[4,5-b][1,4]diazepin-2-ylamino)-N-(1-methyl-piperidin-4-yl)-benzamide] | – | IC50 (AA; [1]): < 100 nM
Cc1cc(Nc2ncc3c(n2)N(C2CCCC2)CCC(=O)N3C)ccc1Cl [compound 72, 2-(4-Chloro-3-methyl-phenylamino)-9-cyclopentyl-5-methyl-5,7,8,9-tetrahydro-pyrimido[4,5-b][1,4]diazepin-6-one] | – | IC50 (AA; [1]): < 1000 nM
COc1cc(C(=O)NC2CCCN(C)C2)ccc1Nc1ncc2c(n1)N(CC(C)C)CCC(=O)N2C (centres unmarked) [compound 303, 4-(9-Isobutyl-5-methyl-6-oxo-6,7,8,9-tetrahydro-5H-pyrimido[4,5-b][1,4]diazepin-2-ylamino)-3-methoxy-N-(1-methyl-piperidin-3-yl)-benzamide] | < 1000 | –
COc1cc(C(=O)NC2CCN(Cc3ccccc3)CC2)ccc1Nc1ncc2c(n1)N(CC(C)C)CCC(=O)N2C [compound 304, N-(1-Benzyl-piperidin-4-yl)-4-(9-isobutyl-5-methyl-6-oxo-6,7,8,9-tetrahydro-5H-pyrimido[4,5-b][1,4]diazepin-2-ylamino)-3-methoxy-benzamide] | < 1000 | –
COc1cc(C(=O)NC2CN3CCC2CC3)ccc1Nc1ncc2c(n1)N(CC(C)C)CCC(=O)N2C (centres unmarked) [compound 305, N-(1-Aza-bicyclo[2.2.2]oct-3-yl)-4-(9-isobutyl-5-methyl-6-oxo-6,7,8,9-tetrahydro-5H-pyrimido[4,5-b][1,4]diazepin-2-ylamino)-3-methoxy-benzamide] | < 1000 | –
COc1cc(C(=O)NC2CC(C)(C)N(C)C(C)(C)C2)ccc1Nc1ncc2c(n1)N(CC(C)C)CCC(=O)N2C [compound 306, 4-(9-Isobutyl-5-methyl-6-oxo-6,7,8,9-tetrahydro-5H-pyrimido[4,5-b][1,4]diazepin-2-ylamino)-3-methoxy-N-(1,2,2,6,6-pentamethyl-piperidin-4-yl)-benzamide] | < 1000 | –
CCN(CC)CCNC(=O)c1ccc(Nc2ncc3c(n2)N(CC(C)C)CCC(=O)N3C)c(OC)c1 [compound 307, N-(2-Diethylamino-ethyl)-4-(9-isobutyl-5-methyl-6-oxo-6,7,8,9-tetrahydro-5H-pyrimido[4,5-b][1,4]diazepin-2-ylamino)-3-methoxy-benzamide] | < 1000 | –
COc1cc(C(=O)NC2CN3CCC2CC3)ccc1Nc1ncc2c(n1)N(c1ccccc1C)CCC(=O)N2C (centres unmarked) [compound 311, N-(1-Aza-bicyclo[2.2.2]oct-3-yl)-3-methoxy-4-(5-methyl-6-oxo-9-o-tolyl-6,7,8,9-tetrahydro-5H-pyrimido[4,5-b][1,4]diazepin-2-ylamino)-benzamide] | < 1000 | –
COc1ccc(N2CCC(=O)N(C)c3cnc(Nc4ccc(C(=O)NC5CN6CCC5CC6)cc4OC)nc32)cc1 (centres unmarked) [compound 317, N-(1-Aza-bicyclo[2.2.2]oct-3-yl)-3-methoxy-4-[9-(4-methoxy-phenyl)-5-methyl-6-oxo-6,7,8,9-tetrahydro-5H-pyrimido[4,5-b][1,4]diazepin-2-ylamino]-benzamide] | < 1000 | –

Now from value to compound, other results behind:

IC50 (PLK1) [nM] | SMILES | also measured
< 10000 | COc1cc(C(=O)NC2CCN(C)CC2)ccc1Nc1ncc2c(n1)N(c1ccccc1C)CCC(=O)N2C [compound 308, 3-Methoxy-4-(5-methyl-6-oxo-9-o-tolyl-6,7,8,9-tetrahydro-5H-pyrimido[4,5-b][1,4]diazepin-2-ylamino)-N-(1-methyl-piperidin-4-yl)-benzamide] | –
< 10000 | COc1cc(C(=O)NC2CCCN(C)C2)ccc1Nc1ncc2c(n1)N(c1ccccc1C)CCC(=O)N2C (centres unmarked) [compound 309, 3-Methoxy-4-(5-methyl-6-oxo-9-o-tolyl-6,7,8,9-tetrahydro-5H-pyrimido[4,5-b][1,4]diazepin-2-ylamino)-N-(1-methyl-piperidin-3-yl)-benzamide] | –
< 10000 | COc1cc(C(=O)NC2CCN(Cc3ccccc3)CC2)ccc1Nc1ncc2c(n1)N(c1ccccc1C)CCC(=O)N2C [compound 310, N-(1-Benzyl-piperidin-4-yl)-3-methoxy-4-(5-methyl-6-oxo-9-o-tolyl-6,7,8,9-tetrahydro-5H-pyrimido[4,5-b][1,4]diazepin-2-ylamino)-benzamide] | –
< 10000 | COc1cc(C(=O)NC2CC(C)(C)N(C)C(C)(C)C2)ccc1Nc1ncc2c(n1)N(c1ccccc1C)CCC(=O)N2C [compound 312, 3-Methoxy-4-(5-methyl-6-oxo-9-o-tolyl-6,7,8,9-tetrahydro-5H-pyrimido[4,5-b][1,4]diazepin-2-ylamino)-N-(1,2,2,6,6-pentamethyl-piperidin-4-yl)-benzamide] | –
< 10000 | CCN(CC)CCNC(=O)c1ccc(Nc2ncc3c(n2)N(c2ccccc2C)CCC(=O)N3C)c(OC)c1 [compound 313, N-(2-Diethylamino-ethyl)-3-methoxy-4-(5-methyl-6-oxo-9-o-tolyl-6,7,8,9-tetrahydro-5H-pyrimido[4,5-b][1,4]diazepin-2-ylamino)-benzamide] | –
< 1000 | COc1ccc(N2CCC(=O)N(C)c3cnc(Nc4ccc(C(=O)NC5CCN(C)CC5)cc4OC)nc32)cc1 [compound 314] | –
< 1000 | COc1ccc(N2CCC(=O)N(C)c3cnc(Nc4ccc(C(=O)NC5CCCN(C)C5)cc4OC)nc32)cc1 (centres unmarked) [compound 315] | –
< 1000 | COc1ccc(N2CCC(=O)N(C)c3cnc(Nc4ccc(C(=O)NC5CCN(Cc6ccccc6)CC5)cc4OC)nc32)cc1 [compound 316, N-(1-Benzyl-piperidin-4-yl)-3-methoxy-4-[9-(4-methoxy-phenyl)-5-methyl-6-oxo-6,7,8,9-tetrahydro-5H-pyrimido[4,5-b][1,4]diazepin-2-ylamino]-benzamide] | –
< 1000 | COc1ccc(N2CCC(=O)N(C)c3cnc(Nc4ccc(C(=O)NC5CC(C)(C)N(C)C(C)(C)C5)cc4OC)nc32)cc1 [compound 318] | –
< 10000 | CCN(CC)CCNC(=O)c1ccc(Nc2ncc3c(n2)N(c2ccc(OC)cc2)CCC(=O)N3C)c(OC)c1 [compound 319, N-(2-Diethylamino-ethyl)-3-methoxy-4-[9-(4-methoxy-phenyl)-5-methyl-6-oxo-6,7,8,9-tetrahydro-5H-pyrimido[4,5-b][1,4]diazepin-2-ylamino]-benzamide] | –
< 1000 | COc1cc(C(=O)NCC(=O)N2CCN(C(C)C)CC2)ccc1Nc1ncc2c(n1)N(C1CCCC1)CC1(CC1)C(=O)N2C [compound 321] | –
< 100 | COc1cc(C(=O)NC2CCN(Cc3ccccc3)C2)ccc1Nc1ncc2c(n1)N(C1CCCC1)CC1(CC1)C(=O)N2C (centres unmarked) [compound 322, N-(Benzyl-pyrrolidin-3-yl)-4-(9-cyclopentyl-5-methyl-6-oxo-6,7,8,9-tetrahydro-5H-spiro[pyrimido[4,5-b][1,4]diazepin-3,1′-cyclopropane]-2-ylamino)-3-methoxy-N-benzamide] | –
< 100 | CN1CCC(NC(=O)c2ccc(Nc3ncc4c(n3)N(C3CCCC3)CC3(CC3)C(=O)N4C)c(F)c2)CC1 [compound 323, 4-(9-Cyclopentyl-5-methyl-6-oxo-6,7,8,9-tetrahydro-5H-spiro[pyrimido[4,5-b][1,4]diazepin-3,1′-cyclopropane]-2-ylamino)-3-fluoro-N-(1-methyl-piperidin-4-yl)-benzamide] | –
< 100 | COc1cc(C(=O)NC2CCN(C)CC2)ccc1Nc1ncc2c(n1)N(C1CCCC1)CC1(CC1)C(=O)N2C [compound 341, 4-(9-Cyclopentyl-5-methyl-6-oxo-6,7,8,9-tetrahydro-5H-spiro[pyrimido[4,5-b][1,4]diazepin-3,1′-cyclopropane]-2-ylamino)-3-methoxy-N-(1-methyl-piperidin-4-yl)-benzamide mesylate] | –
< 1000 | COc1cc(C(=O)NC2CCN(CC(=O)O)CC2)ccc1Nc1ncc2c(n1)N(C1CCCC1)CCC(=O)N2C [compound 343] | –
< 100 | COc1cc(C(=O)NC2CCN(C(C)C)CC2)ccc1Nc1ncc2c(n1)N(C1CCCC1)CCC(=O)N2C [compound 344, 4-(9-Cyclopentyl-5-methyl-6-oxo-6,7,8,9-tetrahydro-5H-pyrimido[4,5-b][1,4]diazepin-2-ylamino)-N-(1-isopropyl-piperidin-4-yl)-3-methoxy-benzamide] | –
